For 26 compounds, viability, inhibition and Activity results are on record in ChEMBL document CHEMBL6121000, “Corosolic acid and its derivatives targeting MCCC1 against insulin resistance and their hypoglycemic effect on type 2 diabetic mice” (Eur J Med Chem, 2025).

A short description of series [1]: (§1) Cytotoxicity against human HepG2 cells assessed as cell viability at 80 uM incubated for 24 hrs by CCK8 assay relative to control. Format: toxicity, cell-based. The settings on record: HepG2 cells, read-out: Activity. Background: Tetrazolium assays rely on reduction of a dye to a coloured formazan, in cell work by metabolically active cells.
In series [2] the test system is HepG2. Briefly: Inhibition of insulin resistance in human HepG2 cells assessed as decrease in GlcN-induced glucose production at 20 uM preincubated for 1 hr followed by GlcN treatment for 18 hrs and subsequent insulin stimulation for 20 mins. Format: functional, cell-based. The settings on record: time 19.33 hrs.
For series [3], the system named is HepG2. Briefly: Lipid lowering activity in human HepG2 cells assessed as inhibition of FFA-induced triglyceride content at 20 uM preincubated for 1 hr followed by FFA treatment for 24 hrs relative to control. It counts as functional.
Series [4] relates to HepG2. The description is as §1. The settings on record: hepg2, 24 h, 80 µM. Format: toxicity, cell-based.
A further series has as its system Mus musculus. Briefly: Hypoglycemic activity in HFD-fed STZ-induced diabetic C57BL/6J mouse model assessed as improvement in weight loss at 200 mg/kg, po administered everyday for 3 weeks. Format: functional, organism-based.

One may read the inhibition as the share of the control response that was lost under treatment.

Active and inactive are the calls of the source. The rule behind the calls is not given here. Bounds are passed on as bounds.

Regarding `COC(=O)[C@H](Cc1ccccc1)NC(=O)[C@]12CC[C@@H](C)[C@H](C)[C@H]1C1=CC[C@@H]3[C@@]4(C)C[C@@H](O)[C@H](O)C(C)(C)[C@@H]4CC[C@@]3(C)[C@]1(C)CC2`, in series [1], the viability at 24 h, 80 µM is greater than 80%. Besides, the inhibition entry in the series on HepG2 [2] was “Active”.

With `C[C@H]1[C@H](C)CC[C@]2(C(=O)NCCCNC(=O)c3ccccc3)CC[C@]3(C)C(=CC[C@@H]4[C@@]5(C)C[C@@H](O)[C@H](O)C(C)(C)[C@@H]5CC[C@]43C)[C@H]12`, in series [1], the viability at 24 h, 80 µM was greater than 80%.

`CC(=O)O[C@H]1CC[C@]2(C)[C@H]3CC=C4[C@@H]5[C@@H](C)[C@H](C)CC[C@]5(C(=O)OCc5ccccc5)CC[C@@]4(C)[C@]3(C)CC[C@H]2C1(C)C`: the viability at 24 h, 80 µM in series [1] is greater than 80%. Further, the inhibition at 20 µM in the series with HepG2 [3] turned out to be 58.5%.

`C[C@H]1[C@H](C)CC[C@]2(C(=O)O[C@H]3O[C@H](CO)C(O)[C@@H](O)[C@H]3O)CC[C@]3(C)C(=CC[C@@H]4[C@@]5(C)C[C@@H](O)[C@H](O)C(C)(C)[C@@H]5CC[C@]43C)[C@H]12` (single isomer, unassigned): the viability at 24 h, 80 µM in series [1] was found to be 64.5%.

As to `C[C@H]1[C@H](C)CC[C@]2(C(=O)OCc3ccccc3)CC[C@]3(C)C(=CC[C@@H]4[C@@]5(C)CCC(=O)C(C)(C)[C@@H]5CC[C@]43C)[C@H]12`, the viability at 24 h, 80 µM in series [1] is greater than 80%.

Consider `C[C@H]1[C@H](C)CC[C@]2(C(=O)NCCCN)CC[C@]3(C)C(=CC[C@@H]4[C@@]5(C)C[C@@H](O)[C@H](O)C(C)(C)[C@@H]5CC[C@]43C)[C@H]12`, for which the viability at 24 h, 80 µM in series [1] is greater than 80%.

With `CCOC(=O)[C@H](CC(C)C)NC(=O)[C@]12CC[C@@H](C)[C@H](C)[C@H]1C1=CC[C@@H]3[C@@]4(C)C[C@@H](O)[C@H](O)C(C)(C)[C@@H]4CC[C@@]3(C)[C@]1(C)CC2`, in series [1], the viability at 24 h, 80 µM was greater than 80%. The inhibition entry in the series with HepG2 [2] was “Active”.

Consider `CCOC(=O)CNC(=O)[C@]12CC[C@@H](C)[C@H](C)[C@H]1C1=CC[C@@H]3[C@@]4(C)C[C@@H](O)[C@H](O)C(C)(C)[C@@H]4CC[C@@]3(C)[C@]1(C)CC2`, for which, in series [1], the viability at 24 h, 80 µM was greater than 80%.

With `COC(=O)CCCCNC(=O)[C@]12CC[C@@H](C)[C@H](C)[C@H]1C1=CC[C@@H]3[C@@]4(C)C[C@@H](O)[C@H](O)C(C)(C)[C@@H]4CC[C@@]3(C)[C@]1(C)CC2`, in series [1], the viability at 24 h, 80 µM is greater than 80%. Moreover, the inhibition entry with HepG2 [2] was “Active”.

With `C[C@H]1[C@H](C)CC[C@]2(C(=O)On3nnc4ccccc43)CC[C@]3(C)C(=CC[C@@H]4[C@@]5(C)C[C@@H](O)[C@H](O)C(C)(C)[C@@H]5CC[C@]43C)[C@H]12`, the viability at 24 h, 80 µM in series [1] was greater than 80%.

Take `C[C@H]1[C@H](C)CC[C@]2(C(=O)NC(=O)NC3CC3)CC[C@]3(C)C(=CC[C@@H]4[C@@]5(C)C[C@@H](O)[C@H](O)C(C)(C)[C@@H]5CC[C@]43C)[C@H]12`: the viability at 24 h, 80 µM in series [1] was greater than 80%. In the series on HepG2 [2], the inhibition entry was “Active”.

Take `C[C@H]1[C@H](C)CC[C@]2(C(=O)OCc3ccccc3)CC[C@]3(C)C(=CC[C@@H]4[C@@]5(C)C[C@@H](O)[C@H](O)C(C)(C)[C@@H]5CC[C@]43C)[C@H]12`: the viability at 24 h, 80 µM in series [1] turned out to be 12.3%.

Regarding `CC(=O)OC[C@H]1O[C@H](OC(=O)[C@]23CC[C@@H](C)[C@H](C)[C@H]2C2=CC[C@@H]4[C@@]5(C)C[C@@H](O)[C@H](O)C(C)(C)[C@@H]5CC[C@@]4(C)[C@]2(C)CC3)C(OC(C)=O)[C@H](OC(C)=O)C1OC(C)=O` (single isomer, unassigned), the viability at 24 h, 80 µM in series [1] is greater than 80%. Besides, the inhibition entry with HepG2 [2] was “Active”.

Take `CC(=O)O[C@@H]1C[C@]2(C)[C@H]3CC=C4[C@@H]5[C@@H](C)[C@H](C)CC[C@]5(C(=O)O)CC[C@@]4(C)[C@]3(C)CC[C@H]2C(C)(C)[C@H]1OC(C)=O`: the viability at 24 h, 80 µM in series [1] stood at 58.7%.

As to `C[C@H]1[C@H](C)CC[C@]2(C(=O)NCCCCCC(=O)O)CC[C@]3(C)C(=CC[C@@H]4[C@@]5(C)C[C@@H](O)[C@H](O)C(C)(C)[C@@H]5CC[C@]43C)[C@H]12`, the Activity result in the series with HepG2 [4] is recorded as “Non-toxic”.

Take `C[C@H]1[C@H](C)CC[C@]2(C(=O)OCc3ccccc3)CC[C@]3(C)C(=CC[C@@H]4[C@@]5(C)CC[C@H](O)C(C)(C)[C@@H]5CC[C@]43C)[C@H]12`: the viability at 24 h, 80 µM in series [1] was greater than 80%. Further, the inhibition entry with HepG2 [2] is “Active”.

With `COC(=O)C(Cc1ccc(OC)cc1)NC(=O)[C@]12CC[C@@H](C)[C@H](C)[C@H]1C1=CC[C@@H]3[C@@]4(C)C[C@@H](O)[C@H](O)C(C)(C)[C@@H]4CC[C@@]3(C)[C@]1(C)CC2` (stereo not given in full), the viability at 24 h, 80 µM in series [1] was greater than 80%. Besides, the inhibition entry in the series on HepG2 [2] was “Active”.

Consider `CCOC(=O)[C@H](CS)NC(=O)[C@]12CC[C@@H](C)[C@H](C)[C@H]1C1=CC[C@@H]3[C@@]4(C)C[C@@H](O)[C@H](O)C(C)(C)[C@@H]4CC[C@@]3(C)[C@]1(C)CC2`, for which the viability at 24 h, 80 µM in series [1] is greater than 80%. In addition, the inhibition result in the series on HepG2 [2] was “Active”.

As for `CCOC(=O)[C@H](CO)NC(=O)[C@]12CC[C@@H](C)[C@H](C)[C@H]1C1=CC[C@@H]3[C@@]4(C)C[C@@H](O)[C@H](O)C(C)(C)[C@@H]4CC[C@@]3(C)[C@]1(C)CC2`, in series [1], the viability at 24 h, 80 µM was greater than 80%. For the same compound, the inhibition entry in the series with HepG2 [2] is “Active”.

On to `CCOC(=O)[C@H](C)NC(=O)[C@]12CC[C@@H](C)[C@H](C)[C@H]1C1=CC[C@@H]3[C@@]4(C)C[C@@H](OC(C)=O)[C@H](OC(C)=O)C(C)(C)[C@@H]4CC[C@@]3(C)[C@]1(C)CC2`, for which the viability at 24 h, 80 µM in series [1] is greater than 80%. Moreover, the inhibition result in the series with HepG2 [2] is “Active”. Moreover, the inhibition at 20 µM in the series with HepG2 [3] stood at 63.1%.

In the case of `CCOC(=O)[C@H](C)NC(=O)[C@]12CC[C@@H](C)[C@H](C)[C@H]1C1=CC[C@@H]3[C@@]4(C)C[C@@H](O)[C@H](O)C(C)(C)[C@@H]4CC[C@@]3(C)[C@]1(C)CC2`, the viability at 24 h, 80 µM in series [1] was greater than 80%.

Take `CCCCC(=O)NCCCNC(=O)[C@]12CC[C@@H](C)[C@H](C)[C@H]1C1=CC[C@@H]3[C@@]4(C)C[C@@H](O)[C@H](O)C(C)(C)[C@@H]4CC[C@@]3(C)[C@]1(C)CC2`: the viability at 24 h, 80 µM in series [1] is greater than 80%. Further, the inhibition entry in the series on HepG2 [2] was “Active”.

Turning to `C[C@H]1[C@H](C)CC[C@]2(C(=O)O)CC[C@]3(C)C(=CC[C@@H]4[C@@]5(C)CC[C@H](O)C(C)(C)[C@@H]5CC[C@]43C)[C@H]12` [URSOLIC ACID], in series [1], the viability at 24 h, 80 µM turned out to be 7.85%.

On to `CC(=O)O[C@@H]1C[C@]2(C)[C@H]3CC=C4[C@@H]5[C@@H](C)[C@H](C)CC[C@]5(C(=O)NCCCN)CC[C@@]4(C)[C@]3(C)CC[C@H]2C(C)(C)[C@H]1OC(C)=O`, for which the viability at 24 h, 80 µM in series [1] came out at 8.9%. In addition, in the series on HepG2 [2], the inhibition entry is “Active”.

Turning to `CC(=O)O[C@@H]1C[C@]2(C)[C@H]3CC=C4[C@@H]5[C@@H](C)[C@H](C)CC[C@]5(C(=O)NCCCNC(=O)OCC5c6ccccc6-c6ccccc65)CC[C@@]4(C)[C@]3(C)CC[C@H]2C(C)(C)[C@H]1OC(C)=O`, in series [1], the viability at 24 h, 80 µM was greater than 80%.

With `CN(C)C(=N)NC(=N)N`, the outcome in the series on Mus musculus was Active.
